Source: patent US9113629B2, “4-amino-6-(4-substituted-phenyl)-picolinates and 6-amino-2-(4-substituted-phenyl)-pyrimidine-4-carboxylates and their use as herbicides” (DOW AGROSCIENCES LLC, priority 2013, dated 2015)
Read-outs that look alike come from different tables or passages of the source.

Experiments:
[1] = system: Key Broadleaf Weed and Crop Species; assay: Post-emergent Test II herbicidal activity (Table 5); assay type: in vivo; conditions: post-emergence, 336 h, post-emergent, 14 days after application; for pest or weed control at 70 g/ha: 70 g ai/ha; for pest or weed control at 140 g/ha: 140 g ai/ha
How it was run: (§1)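 Visual injury ratings (0 = no injury, 100 = complete kill) were taken 14 d after treatment, relative to untreated plants. Seedlings at the first–second true leaf stage received overhead spray at 187 L/ha; the highest rate was serially diluted to ½×, ¼×, ⅛× and 1/16×.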

[2] = system: Key Grass and Sedge Weeds as well as Grass Crops; assay: Post-emergent Test II herbicidal activity (Table 6); assay type: in vivo; conditions: post-emergence, 336 h; for pest or weed control at 70 g/ha: application rate 70 g ai/ha; for pest or weed control at 140 g/ha: application rate 140 g ai/ha
How it was run: as §1

[3] = ABUTH: velvetleaf (Abutilon theophrasti), read-out: Visual Growth Reduction (%) 14 Days After Application ABUTH
[4] = AMARE: redroot pigweed (Amaranthus retroflexus), read-out: Visual Growth Reduction (%) 14 Days After Application AMARE
[5] = BRSNN: oilseed-rape, canola (Brassica napus), read-out: Visual Growth Reduction (%) 14 Days After Application BRSNN
[6] = CHEAL: lambsquarters (Chenopodium album), read-out: Visual Growth Reduction (%) 14 Days After Application CHEAL
[7] = EPHHL: wild poinsettia (Euphorbia heterophylla), read-out: Visual Growth Reduction (%) 14 Days After Application EPHHL
[8] = HELAN: sunflower (Helianthus annuus), read-out: Visual Growth Reduction (%) 14 Days After Application HELAN
[9] = VIOTR: wild pansy (Viola tricolor), read-out: Visual Growth Reduction (%) 14 Days After Application VIOTR
[10] = Triticum aestivum, TRZSS (wheat), read-out: Visual Growth Reduction (%) 14 Days After Application, TRZSS
[11] = CYPES: yellow nutsedge (Cyperus esculentus), read-out: Visual Growth Reduction (%) 14 Days After Application, CYPES
[12] = DIGSA: crabgrass (Digitaria sanguinalis), read-out: Visual Growth Reduction (%) 14 Days After Application, DIGSA
[13] = ECHCG: barnyardgrass (Echinochloa crus-galli), read-out: Visual Growth Reduction (%) 14 Days After Application, ECHCG
[14] = ORYSA: rice (Oryza sativa), read-out: Visual Growth Reduction (%) 14 Days After Application, ORYSA
[15] = SETFA: giant foxtail (Setaria faberi), read-out: Visual Growth Reduction (%) 14 Days After Application, SETFA
[16] = SORVU: grain sorghum (Sorghum vulgare), read-out: Visual Growth Reduction (%) 14 Days After Application, SORVU
[17] = ZEAMX: maize, corn (Zea mays), read-out: Visual Growth Reduction (%) 14 Days After Application, ZEAMX

Row | SMILES | pest or weed control at 70 g/ha [1, 3] [%] | pest or weed control at 140 g/ha [1, 3] [%] | pest or weed control at 70 g/ha [1, 4] [%] | pest or weed control at 140 g/ha [1, 4] [%] | pest or weed control at 70 g/ha [1, 5] [%] | pest or weed control at 140 g/ha [1, 5] [%] | pest or weed control at 70 g/ha [1, 6] [%] | pest or weed control at 140 g/ha [1, 6] [%] | pest or weed control at 70 g/ha [1, 7] [%] | pest or weed control at 140 g/ha [1, 7] [%] | pest or weed control at 70 g/ha [1, 8] [%] | pest or weed control at 140 g/ha [1, 8] [%] | pest or weed control at 70 g/ha [1, 9] [%] | pest or weed control at 140 g/ha [1, 9] [%] | pest or weed control at 70 g/ha [2, 10] [%] | pest or weed control at 140 g/ha [2, 10] [%] | pest or weed control at 70 g/ha [2, 11] [%] | pest or weed control at 140 g/ha [2, 11] [%] | pest or weed control at 70 g/ha [2, 12] [%] | pest or weed control at 140 g/ha [2, 12] [%] | other results
1 | Nc1cc(-c2ccc(Br)c(F)c2)nc(C(=O)O)c1Cl [Compound 110, 4-Amino-6-(4-bromo-3-fluorophenyl)-3-chloropicolinic acid] | 95 to 100 | 95 to 100 | 95 to 100 | 95 to 100 | 95 to 100 | 95 to 100 | 95 to 100 | 95 to 100 | 95 to 100 | 95 to 100 | 95 to 100 | 95 to 100 | 45 to 59 | 45 to 59 | 45 to 59 | 45 to 59 | 45 to 59 | 45 to 59 | 75 to 84 | 75 to 84 | pest or weed control at 70 g/ha [2, 13]: 60 to 74%; pest or weed control at 140 g/ha [2, 13]: 75 to 84%; pest or weed control at 70 g/ha [2, 14]: 0 to 29%; pest or weed control at 140 g/ha [2, 14]: 0 to 29%; pest or weed control at 70 g/ha [2, 15]: 60 to 74%; pest or weed control at 140 g/ha [2, 15]: 60 to 74%; pest or weed control at 70 g/ha [2, 16]: 85 to 94%; pest or weed control at 140 g/ha [2, 16]: 85 to 94%; pest or weed control at 70 g/ha [2, 17]: 45 to 59%; pest or weed control at 140 g/ha [2, 17]: 60 to 74%
2 | COc1c(N)nc(-c2ccc(Br)c(F)c2)nc1C(=O)O [Compound 113, 6-Amino-2-(4-bromo-3-fluorophenyl)-5-methoxypyrimidine-4-carboxylic acid] | 85 to 94 | 85 to 94 | 95 to 100 | 95 to 100 | 95 to 100 | 95 to 100 | 95 to 100 | 95 to 100 | 95 to 100 | 95 to 100 | 95 to 100 | 95 to 100 | 95 to 100 | 95 to 100 | 60 to 74 | 75 to 84 | 95 to 100 | 95 to 100 | 75 to 84 | 75 to 84 | pest or weed control at 70 g/ha [2, 13]: 85 to 94%; pest or weed control at 140 g/ha [2, 13]: 85 to 94%; pest or weed control at 70 g/ha [2, 14]: 30 to 44%; pest or weed control at 140 g/ha [2, 14]: 60 to 74%; pest or weed control at 70 g/ha [2, 15]: 75 to 84%; pest or weed control at 140 g/ha [2, 15]: 75 to 84%; pest or weed control at 70 g/ha [2, 16]: 85 to 94%; pest or weed control at 140 g/ha [2, 16]: 85 to 94%; pest or weed control at 70 g/ha [2, 17]: 85 to 94%; pest or weed control at 140 g/ha [2, 17]: 85 to 94%
3 | COC(=O)c1nc(-c2ccc(Br)c(F)c2)cc(N)c1Cl [Compound 115, methyl 4-amino-6-(4-bromo-3-fluorophenyl)-3-chloropicolinate] | 85 to 94 | 85 to 94 | 95 to 100 | 95 to 100 | 60 to 74 | 75 to 84 | 95 to 100 | 95 to 100 | 95 to 100 | 95 to 100 | 85 to 94 | 95 to 100 | 95 to 100 | 95 to 100 | 0 to 29 | 0 to 29 | 95 to 100 | 95 to 100 | 85 to 94 | 85 to 94 | pest or weed control at 70 g/ha [2, 13]: 85 to 94%; pest or weed control at 140 g/ha [2, 13]: 85 to 94%; pest or weed control at 70 g/ha [2, 14]: 0 to 29%; pest or weed control at 140 g/ha [2, 14]: 0 to 29%; pest or weed control at 70 g/ha [2, 15]: 0 to 29%; pest or weed control at 140 g/ha [2, 15]: 0 to 29%; pest or weed control at 70 g/ha [2, 16]: 85 to 94%; pest or weed control at 140 g/ha [2, 16]: 95 to 100%; pest or weed control at 70 g/ha [2, 17]: 0 to 29%; pest or weed control at 140 g/ha [2, 17]: 0 to 29%
